According to patent US11098238B2, “Tracer and method” (JOHNSON MATTHEY PUBLIC LIMITED COMPANY, priority 2016, dated 2021):

Assays:
[1] = log Kow (octanol/water partition coefficient); type: physicochemical; conditions: for Log Kow: base-10 logarithm of ratio of equilibrium concentrations in octanol and water
Excerpt: Preferably the system is an oil reservoir and the property is the residual oil saturation. Thus, preferably the use is of a partitioning tracer for determining residual oil saturation, the partitioning tracer comprising a sulfone compound having a log Kow value in the range −0.5 to 3. Preferably the log Kow value is in the range 0.5 to 1.5. Those ranges may give optimum partitioning into the oil in the formation. If the log Kow value is too high, the partitioning tracer will spend too long in the oil and will not be released from the well in a reasonable time, or even at all. If the log Kow value is too low, the partitioning tracer will largely remain in the water phase and there will not be a sufficient differential between the release of the conservative and partitioning tracers. The log Kow value is the base-10 logarithm of the ratio of the equilibrium concentrations of the tracer in octanol and water and can be determined for example, by the method described in “Experimental Aspects of Partitioning Tracer Tests for Residual Oil Saturation Determination with FIA-based Laboratory Equipment, SPE Reservoir Engineering, May 1990, pages 239-244”.
The log Kow values are either experimentally determined or estimated using KOWWIN v1.68.

[2] = Vapour pressure

Row | Log Kow [1] | log Kow value [1] | Structure (SMILES) | Vapour Pressure [2]
1 | 1.72 | – | OCc1ccc(Cl)cc1 [4-Chlorobenzyl alcohol, 4-chlorobenzyl alcohol] | 0.00268 mm Hg
2 | – | −1.11 | CS(C)(=O)=O [dimethylsulfone] | –
3 | 1.21 | – | CS(=O)(=O)c1ccc(Cl)cc1 [4-Chlorophenyl methyl sulfone, 4-chlorophenyl methyl sulfone] | –

Row | Structure (SMILES) | Log Kow [1] | log Kow value [1] | Vapour Pressure [2]
4 | OC(C(F)(F)F)C(F)(F)F [1,1,1,3,3,3-Hexafluoro-2-propanol, 1,1,1,3,3,3-hexafluoro-2-propanol] | 1.66 | – | 156 mm Hg
